Several values for one entry are separate records, joined by “and”; a condition that tells them apart may be missing. Identical values can stand only once.
Key:
[1] = test system: psoriasis plaques; assay: Proof of concept study of single intralesional doses in psoriasis patients, microplaque assay (LPSI); assay type: in vivo, human; conditions: single intralesional dose (3 injections of 100 μL); 14 day scoring period
Source text: The objectives of this study were: • To establish preliminary evidence for the efficacy of intralesionally injected 25HC3S in patients with psoriasis, as assessed by microplaque assay. • To assess the safety of 25HC3S in patients with psoriasis. • Compare evidence for the efficacy of different formulations of intralesionally injected 25HC3S.
• This trial was a double-blind, within-participant, randomized, vehicle and active comparator-controlled, single-dose study. Participants attended a screening visit within 28 days of dosing. A target plaque(s) of psoriasis was selected. • Day 0: each participant was treated with 2 different formulations of study drug, 2 vehicle formulations, one active comparator and one untreated area (6 treatments in total). Each treatment was administered to every participant as an intralesional injection, with the exception of the untreated area. • Participants were required to return for outpatient visits for microplaque assessments at Day 1, Day 2, Day 7 and Day 14. Treatment Formulations: Table 12 lists the formulated drug products and Table 13 lists the amounts injected.
Ten patients with mild to severe psoriasis were enrolled into this clinical trial after screening. […]
The effect of 25HC3S in psoriasis was assessed by the change of LPSI score as compared to vehicle or untreated in this microplaque assay. […]

[2] = Infusion compatibility: 25HC3S diluted in 5% dextrose infusion bag and eluted through infusion sets (potency, osmolality, pH, appearance); assay type: physicochemical; conditions: for 24 Hours at 2-8° C. Concentration / 24 Hours at 2-8° C. Osmolality / 24 Hours at 2-8° C. pH / 24 Hours at 25° C. % Remaining Compared to T = 0 / 24 Hours at 25° C. Concentration / 24 Hours at 25° C. Osmolality / 24 Hours at 25° C. pH / T = 0 Conc. / T = 0 Osmolality / T = 0 pH: 5% dextrose bag; for After Storage in Infusion Bag and Collection from Infusion Set % Remaining Compared to T = 0 / After Storage in Infusion Bag and Collection from Infusion Set Concentration / After Storage in Infusion Bag and Collection from Infusion Set Osmolality / After Storage in Infusion Bag and Collection from Infusion Set pH: 5% dextrose, approx. 0.28 mg/mL
Protocol: A physical and chemical compatibility study was conducted at a 30 mg, 48 mg and 300 mg 25HC3S dose in 5% dextrose and 0.9% sodium chloride infusion bags. Descriptions of the two kinds of infusion sets tested with 25HC3S product diluted in 5% dextrose and 0.9% sodium chloride are listed in Table 15. The tubing in catalog number 2H8480 infusion set was composed of polyvinylchloride (PVC), while the tubing in catalog number 2C8858 was polyethylene lined except for a short pump segment (approximately 12 inches) which was composed of PVC.
25HC3S for Injection and Vehicle for 25HC3S for Injection, that had been stored at 2-8° C. for approximately 16 months, were used for the compatibility study. After constitution, 30 mg (1.0 mL of constituted product), 48 mg (1.6 mL of constituted product) or 300 mg (10 mL of constituted product) were added to 100 mL infusion bags of 5% dextrose and 0.9% sodium chloride, mixed thoroughly, and stored for 24 hours at room temperature and at 2-8° C. […] Taking into consideration the overfill per infusion bag and the additional volume introduced by adding the constituted 25HC3S product to each bag, the expected concentrations of 25HC3S were 0.28 mg/mL, 0.44 mg/mL, and 2.56 mg/mL in the infusion bags. Two kinds of infusion sets were then attached to the drug containing infusion bags, and the entire contents were eluted through the infusion sets at approximately 50 mL/hour at room temperature. Samples were collected from the 25HC3S prepared infusion bags at T=0 and at 24 hours, and from the total eluent passed through the infusion sets, and tested for 25HC3S concentration using HPLC. Solution visual appearance, osmolality (using method USP<785>), and pH (using method USP<791>) were also measured on the collected samples.

[3] = bag 24 h at 2-8° C., Baxter 2C8858
[4] = bag 24 h at 2-8° C., Baxter 2H8480
[5] = bag 24 h at 25° C., Baxter 2C8858

SMILES: C[C@H](CCCC(C)(C)O)[C@H]1CC[C@H]2[C@@H]3CC=C4C[C@@H](OS(=O)(=O)[O-])CC[C@]4(C)[C@H]3CC[C@]12C.[Na+] [Formulation 25HC3S, 5-cholesten-3, 25-diol, 3-sulfate]
- effect on psoriatic plaques based on LPSI score [1]: exhibited efficacy in psoriatic plaques by reducing LPSI
- 24 Hours at 2-8° C. Concentration ([2]; approx. 0.28 mg/mL 25HC3S): 0.280 mg/mL
- 24 Hours at 2-8° C. Osmolality ([2]; approx. 0.28 mg/mL 25HC3S): 250 mmol/kg and 253 mmol/kg
- 24 Hours at 2-8° C. pH ([2]; approx. 0.28 mg/mL 25HC3S): 7.09 and 7.04
- 24 Hours at 25° C. % Remaining Compared to T = 0 ([2]; approx. 0.28 mg/mL 25HC3S): (100.0%)
- 24 Hours at 25° C. Concentration ([2]; approx. 0.28 mg/mL 25HC3S): 0.276 mg/mL and 0.277 mg/mL
- 24 Hours at 25° C. Osmolality ([2]; approx. 0.28 mg/mL 25HC3S): 252 mmol/kg and 249 mmol/kg
- 24 Hours at 25° C. pH ([2]; approx. 0.28 mg/mL 25HC3S): 7.12 and 7.05
- T = 0 Conc. ([2]; approx. 0.28 mg/mL 25HC3S): 0.276 mg/mL and 0.277 mg/mL and 0.280 mg/mL and 0.279 mg/mL
- T = 0 Osmolality ([2]; approx. 0.28 mg/mL 25HC3S): 247 mmol/kg and 250 mmol/kg and 251 mmol/kg
- T = 0 pH ([2]; approx. 0.28 mg/mL 25HC3S): 7.09 and 7.03 and 7.10 and 7.04
- 24 Hours at 2-8° C. Concentration ([2]; approx. 0.44 mg/mL 25HC3S): 0.438 mg/mL and 0.440 mg/mL
- 24 Hours at 2-8° C. Osmolality ([2]; approx. 0.44 mg/mL 25HC3S): 254 mmol/kg and 257 mmol/kg
- 24 Hours at 2-8° C. pH ([2]; approx. 0.44 mg/mL 25HC3S): 6.96 and 6.93
- 24 Hours at 25° C. % Remaining Compared to T = 0 ([2]; approx. 0.44 mg/mL 25HC3S): (100.0%)
- 24 Hours at 25° C. Concentration ([2]; approx. 0.44 mg/mL 25HC3S): 0.447 mg/mL and 0.442 mg/mL
- 24 Hours at 25° C. Osmolality ([2]; approx. 0.44 mg/mL 25HC3S): 256 mmol/kg and 253 mmol/kg
- 24 Hours at 25° C. pH ([2]; approx. 0.44 mg/mL 25HC3S): 6.91 and 6.90
- T = 0 Conc. ([2]; approx. 0.44 mg/mL 25HC3S): 0.447 mg/mL and 0.442 mg/mL and 0.439 mg/mL
- T = 0 Osmolality ([2]; approx. 0.44 mg/mL 25HC3S): 255 mmol/kg and 254 mmol/kg and 256 mmol/kg
- T = 0 pH ([2]; approx. 0.44 mg/mL 25HC3S): 6.83 and 6.81 and 6.82 and 6.88
- 24 Hours at 2-8° C. Concentration ([2]; approx. 2.56 mg/mL 25HC3S): 2.550 mg/mL and 2.530 mg/mL
- 24 Hours at 2-8° C. Osmolality ([2]; approx. 2.56 mg/mL 25HC3S): 246 mmol/kg and 251 mmol/kg
- 24 Hours at 2-8° C. pH ([2]; approx. 2.56 mg/mL 25HC3S): 6.11 and 6.14
- 24 Hours at 25° C. Concentration ([2]; approx. 2.56 mg/mL 25HC3S): 2.470 mg/mL and 2.520 mg/mL
- 24 Hours at 25° C. Osmolality ([2]; approx. 2.56 mg/mL 25HC3S): 257 mmol/kg and 250 mmol/kg
- 24 Hours at 25° C. pH ([2]; approx. 2.56 mg/mL 25HC3S): 6.12 and 6.06
- T = 0 Conc. ([2]; approx. 2.56 mg/mL 25HC3S): 2.500 mg/mL and 2.510 mg/mL and 2.530 mg/mL and 2.525 mg/mL
- T = 0 Osmolality ([2]; approx. 2.56 mg/mL 25HC3S): 258 mmol/kg and 247 mmol/kg
- T = 0 pH ([2]; approx. 2.56 mg/mL 25HC3S): 6.04 and 6.12 and 6.29 and 6.26
- After Storage in Infusion Bag and Collection from Infusion Set % Remaining Compared to T = 0 [2, 3]: (100.4%)
- After Storage in Infusion Bag and Collection from Infusion Set Concentration [2, 3]: 0.280 mg/mL
- After Storage in Infusion Bag and Collection from Infusion Set Osmolality [2, 3]: 252 mmol/kg
- After Storage in Infusion Bag and Collection from Infusion Set pH [2, 3]: 6.99
- After Storage in Infusion Bag and Collection from Infusion Set % Remaining Compared to T = 0 [2, 4]: (100.0%)
- After Storage in Infusion Bag and Collection from Infusion Set Concentration [2, 4]: 0.280 mg/mL
- After Storage in Infusion Bag and Collection from Infusion Set Osmolality [2, 4]: 251 mmol/kg
- After Storage in Infusion Bag and Collection from Infusion Set pH [2, 4]: 6.95
- After Storage in Infusion Bag and Collection from Infusion Set % Remaining Compared to T = 0 [2, 5]: (100.0%)
- After Storage in Infusion Bag and Collection from Infusion Set Concentration [2, 5]: 0.277 mg/mL
- After Storage in Infusion Bag and Collection from Infusion Set Osmolality [2, 5]: 252 mmol/kg

Source: patent publication US20190374554A1, “USE OF OXYGENATED CHOLESTEROL SULFATES (OCS) TO TREAT INFLAMMATORY SKIN DISEASE AND SKIN LESIONS” (Virginia Commonwealth University, priority 2016, published 2019)
